Data published in patent US5041567A, “Antibacterial monic acid derivatives” (Beecham Group plc, priority 1982, dated 1991).
In brackets after ≈: the same amount, converted by molar mass.

How the values were obtained:
M. suipneumoniae LABER = assay: MIC against mycoplasma in vitro; format: cell-based; conditions: Mesomycoplasma hyopneumoniae, 144 h
Bord. bronchiseptica B09 = assay: MIC against veterinary bacteria in vitro; conditions: Bordetella bronchiseptica, B09, 18 h
Procedure: (§1) The activity of the compounds of the Examples against various veterinarily important bacteria, was assayed in vitro using two-fold serial dilutions in Diagnostic Sensitivity Test Agar inoculated with 10^4 organisms.

S. typhimurium S18 = assay: MIC against veterinary bacteria in vitro; conditions: Salmonella enterica, TYPHIMURIUM, 18 h
Procedure: as §1

M. hyorhinis ATCC 23234 = assay: MIC against mycoplasma in vitro; format: cell-based; conditions: Mesomycoplasma hyorhinis, ATCC23234, 144 h
M. suipneumoniae UCD 1 = assay: MIC against mycoplasma in vitro; format: cell-based; conditions: Mesomycoplasma hyopneumoniae, UCD1, 144 h
[1] = test system: Erysipelothrix rhusiopathiae NCTC 8163; assay: MIC against veterinary bacteria in vitro; conditions: Erysipelothrix rhusiopathiae, NCTC8163, 18 h
Procedure: as §1

Bord. bronchiseptica B08 = assay: MIC against veterinary bacteria in vitro; conditions: Bordetella bronchiseptica, B08, 18 h
Procedure: as §1

B. subtilis ATCC 6633 = assay: MIC against veterinary bacteria in vitro; conditions: Bacillus subtilis, ATCC6633, 18 h
Procedure: as §1

E. coli NCTC 10418 [2] = assay: MIC against veterinary bacteria in vitro; conditions: Escherichia coli, NCTC10418, 18 h
Procedure: as §1

[3] = test system: Staph. aureus 152 (pen. sens); assay: MIC against veterinary bacteria in vitro; conditions: Staphylococcus aureus, 18 h
Procedure: as §1

M. pneumoniae ATCC 15492 = assay: MIC against mycoplasma in vitro; format: cell-based; conditions: Mycoplasmoides pneumoniae, ATCC15492, 144 h
[4] = test system: M. suipneumoniae PW/C/210; assay: MIC against mycoplasma in vitro; format: cell-based; conditions: Mesomycoplasma hyopneumoniae, 144 h
[5] = test system: M. suipneumoniae NCTC 10110; assay: MIC against mycoplasma in vitro; format: cell-based; conditions: Mesomycoplasma hyopneumoniae, NCTC10110, 144 h
M. bovis NCTC 10131 = assay: microbe, parasite or virus in culture; format: cell-based; conditions: NCTC10131, 144 h
Past. haemolytica PA5 = assay: MIC against veterinary bacteria in vitro; conditions: Mannheimia haemolytica, PA5, 18 h
Procedure: as §1

M. suipneumoniae HK(2) = assay: MIC against mycoplasma in vitro; format: cell-based; conditions: Mesomycoplasma hyopneumoniae, 144 h
M. gallisepticum S6 = assay: MIC against mycoplasma in vitro; format: cell-based; conditions: Mycoplasmoides gallisepticum, S6, 144 h
Past. multocida PA2 = assay: MIC against veterinary bacteria in vitro; conditions: Pasteurella multocida, PA2, 18 h
Procedure: as §1

Staph. aureus Oxford = assay: MIC against veterinary bacteria in vitro; conditions: Staphylococcus aureus, 18 h
Procedure: as §1

E. coli NCTC 10418 [6] = assay: MIC against human bacteria in vitro; format: cell-based; conditions: Escherichia coli, NCTC10418; E. coli NCTC 10418; agar with 5% chocolated horse blood, 18 hours, 37° C.; read-out: MIC
E. coli E1 = assay: MIC against veterinary bacteria in vitro; conditions: Escherichia coli, E1, 18 h
Procedure: as §1

Strep. dysgalactiae SPD1 = assay: MIC against veterinary bacteria in vitro; conditions: Streptococcus dysgalactiae, SPD1, 18 h
Procedure: as §1

Compound `C/C(=C\c1ncc(-c2cccc([S+](C)[O-])c2)o1)C[C@@H]1OC[C@H](C[C@@H]2O[C@H]2[C@@H](C)[C@H](C)O)[C@@H](O)[C@H]1O` (stereo partly shown) [Example 25, 5-m-Methylsulphinylphenyl-2-(1-normon-2-yl)oxazole A] has an MIC (M. suipneumoniae LABER) of 0.25 µg/mL (≈ 0.494 µM), an MIC (Bord. bronchiseptica B09) of 40 µg/mL (≈ 79.1 µM) and an MIC (S. typhimurium S18) of over 80 µg/mL. For the same compound, the MIC (M. hyorhinis ATCC 23234) was 1 µg/mL (≈ 1.98 µM), the MIC (M. suipneumoniae UCD 1) was 1 µg/mL (≈ 1.98 µM) and the MIC [1] was over 80 µg/mL. For the same compound, the MIC (Bord. bronchiseptica B08) was over 80 µg/mL, the MIC (B. subtilis ATCC 6633) was 2.5 µg/mL (≈ 4.94 µM) and the MIC (E. coli NCTC 10418 [2]) was over 80 µg/mL. For the same compound, the MIC [3] was 10 µg/mL (≈ 19.8 µM), the MIC (M. pneumoniae ATCC 15492) was 2.5 µg/mL (≈ 4.94 µM) and the MIC [4] was 0.25 µg/mL (≈ 0.494 µM). The MIC [5] was 1 µg/mL (≈ 1.98 µM), the MIC (M. bovis NCTC 10131) was 0.025 µg/mL (≈ 0.0494 µM) and the MIC (Past. haemolytica PA5) was 80 µg/mL (≈ 158 µM). The MIC (M. suipneumoniae HK(2)) was 1 µg/mL (≈ 1.98 µM), the MIC (M. gallisepticum S6) was 2.5 µg/mL (≈ 4.94 µM) and the MIC (Past. multocida PA2) was 2.5 µg/mL (≈ 4.94 µM). The MIC (Staph. aureus Oxford) was 20 µg/mL (≈ 39.6 µM), the MIC (E. coli NCTC 10418 [6]) was over 128 µg/mL and the MIC (E. coli E1) was over 80 µg/mL. For the same compound, the MIC (Strep. dysgalactiae SPD1) was 1.25 µg/mL (≈ 2.47 µM).
